Source: article PMC5666694 (Antiviral research, 2017)
Structures can show the parent of a compound that is named as a salt.

System: HIV/EBOV pseudovirion
Assay type: cell-based, Ebolavirus Zaire

Row | Compound | Antiviral effect by time of compound addition
1 | CN1[C@@H]2CC[C@H]1C[C@@H](OC(c1ccccc1)c1ccccc1)C2 [benztropine, Benztropine mesylate] | started to lose its inhibitory effect when it was added at 2 h post entry and beyond
2 | Cc1cn([C@H]2C[C@H](N=[N+]=[N-])[C@@H](CO)O2)c(=O)[nH]c1=O [AZT, Azidothymidine] | still effective even when it was introduced at a very late time points (>8 h)
